Assay results reported in patent publication US20190256499A1, “SUBSTITUTED QUINOXALINE DERIVATIVES AS INHIBITORS OF PFKFB” (priority 2016, published 2019).
Converted amounts (≈) assume the structure as drawn.

What was measured:
[1] = Microsomal stability (intrinsic clearance), mouse liver microsomes; assay type: in vitro ADME; set-up: microsomal CLint: dose or concentration left out as unconfirmed; settings: mouse, liver microsomes, pH 7.4, mouse liver microsomes
Source text: A microsomal stability assay is used to measure in vitro clearance (Clint). The assay involves measuring the rate of disappearance of a compound due to its intrinsic attitude to be metabolized (“intrinsic” meaning that the disappearance is not affected by other properties like permeability, binding etc. that play a role when quantifying in vivo clearance). The microsomal stability (intrinsic clearance, Clint) and thus metabolic stability is generally given as μl/min/mg protein. It can be visualized as the volume of solution that 1 mg of microsomes is able to clear of the compound in one minute.
A Tecan Genesis workstation (RSP 150/8) was used for to perform the microsomal incubations. Analysis was carried out using a Waters ACQUITY UPLC system coupled to an ABSciex API3000 mass spectrometer. Data analysis was performed using Assay Explorer (Symyx).
Mobile phases: A=0.1% formic acid in water; B=acetonitrile
Flow rate: 0.750 mL/min; Detection: ESI, MRM; Injection: 10 μL; Column temperature: 50° C.
Potassium phosphate buffer: 0.05 M potassium phosphate buffer pH 7.4 containing 1 mM MgCl2 NADPH (nicotinamide adenine dinucleotide phosphate): 22.5 mg NADPH-Na4 in 1.8 ml potassium phosphate buffer Acetonitrile: 50 Vol % acetonitrile (1 volume acetonitrile, 1 volume water) DMSO: 20 Vol % DMSO in water Stock solution of 20 mg/ml human or mouse liver microsomes (protein)/ml in phosphate buffer Stock solution of 10 mM compound in 100% DMSO

Kinetic solubility = assay type: physicochemical; settings: phosphate buffer, pH 7.4, aqueous buffer, kinetic from dmso stock, phosphate buffer 20 mM pH 7.4, 2% DMSO, room temperature
Procedure: Kinetic solubility of compounds of the present invention were tested according the following procedure.
(a) Buffer Solution Phosphate Buffer 20 mM pH 7.4 is prepared using Sorensen Phosphate Buffer 0.2 M pH 7.4 (EMS) in a 1000 mL volumetric flask (b) 2% DMSO in Phosphate Buffer 20 mM pH 7.4 is prepared by using 1 mL Dimethylsulfoxide (Merck) and 49 ml Sorensen Phosphate Buffer 20 mM pH 7.4 (c) Acetonitrile/Methanole/Eluent A (1:1:2; v/v/v) is prepared by using 50 mL Acetonitrile (Merck), 50 mL Methanol (Merck) and 100 mL Eluent A (d) Eluent A is prepared by using 1 mL Formic Acid (Merck) and 999 mL Ultrapure water (e) Eluent B is prepared by using 1 mL Formic Acid (Merck) and 999 mL Acetonitrile (Merck) (f) Filtration plate: Millipore MultiScreen HTS HV (0.45 μm) 96 Well (Millipore)
98 μL buffer solution (a) is added into a well of a 96 well filtration plate (f). Then 2 μL of 10 mM test compound solution in DMSO (Remp tube) is added. The filtration plate is incubated at room temperature for 120 minutes while agitating at 250 rpm and centrifuged with the PP-Plate (g) as receiver plate below (2500 rpm, 3 min). The 50 μL of filtrate is taken from the receiver plate and mixed with 50 μL of 2% DMSO in buffer pH 7.4 solution (b) (dilution factor=2) in a HPLC Vial (i)+(j).
Standard is prepared by diluting 2 μL of the same 10 mM test compound solution (Remp tube) diluted with 198 μL Acetonitrile/Methanole/Eluent A (1:1:2; v/v/v) (c) to prepare a 100 μM standard solution in a HPLC Vial (i)+(j).
Column temperature: 37° C. Autosampler: room temperature (approx. 25° C.) Gradient programme: […]
Injection volume: 10 μL Wavelength: Suitable wavelength (maximum sensitivity) selected out of wavelength range of 190-400 nm using a DAD detector.
L [μg/mL]=(area sample*concentration standard*dilution factor sample)/(area standard*dilution factor standard)
S [mol/L]=[…] Calculation: […]

Row | SMILES | microsomal CLint [1] [µL/min/mg] | solubility kinetic at 120 min (Kinetic solubility) [µM]
1 | Cn1ccc2ccc(-c3cc(NC(c4cccnc4)c4ccc(=O)[nH]n4)cc4nccnc34)cc21 (single isomer, unassigned) [Example 2] | 101 | 61 (≈ 28 µg/mL)
2 | COc1ccc([C@@H](Nc2cc(-c3ccc4ccn(C)c4c3)c3nccnc3c2)c2cccnc2)nn1 (single isomer, unassigned) [Example 5] | 154 | 20 (≈ 9.47 µg/mL)
3 | Cn1cc([C@H](Nc2cc(-c3ccc4ccn(C)c4c3)c3nccnc3c2)c2cnnn2C)cn1 (single isomer, unassigned) [Example 8] | 29 | 110 (≈ 49.4 µg/mL)
4 | Cn1cc([C@H](Nc2cc(-c3ccc4ccn(C)c4c3)c3nccnc3c2)c2cncn2C)cn1 (single isomer, unassigned) [Example 11] | 105 | 100 (≈ 44.9 µg/mL)
5 | COc1ccc([C@@H](Nc2cc(-c3ccc4ccn(C)c4c3)c3nccnc3c2)c2cccnc2)cn1 [Comparative Example 4, [(S)-(6-methoxy-pyridin-3-yl)-pyridin-3-yl-methyl]-[8-(1-methyl-1H-indol-6-yl)-quinoxalin-6-yl]-amine, reference compound] | 291 | 3.7 (≈ 1.75 µg/mL)
